# Laboratory results as given in ChEMBL document CHEMBL1141066, “Acetylenic TACE inhibitors. Part 2: SAR of six-membered cyclic sulfonamide hydroxamates” (Bioorg Med Chem Lett, 2005).
# Legend:
# Collagenase 3 = Collagenase 3 (Homo sapiens, UniProt P45452); assay: Inhibitory activity against matrix metallopeptidase 13
# [1] = target: Disintegrin and metalloproteinase domain-containing protein 17 (Homo sapiens, UniProt P78536); assay: Inhibitory activity against TACE[ADAM metallopeptidase domain 17] in isolated enzyme assay
# Disintegrin and metalloproteinase domain-containing protein 17, sequence (P78536 whole entry, the tested form may be a part): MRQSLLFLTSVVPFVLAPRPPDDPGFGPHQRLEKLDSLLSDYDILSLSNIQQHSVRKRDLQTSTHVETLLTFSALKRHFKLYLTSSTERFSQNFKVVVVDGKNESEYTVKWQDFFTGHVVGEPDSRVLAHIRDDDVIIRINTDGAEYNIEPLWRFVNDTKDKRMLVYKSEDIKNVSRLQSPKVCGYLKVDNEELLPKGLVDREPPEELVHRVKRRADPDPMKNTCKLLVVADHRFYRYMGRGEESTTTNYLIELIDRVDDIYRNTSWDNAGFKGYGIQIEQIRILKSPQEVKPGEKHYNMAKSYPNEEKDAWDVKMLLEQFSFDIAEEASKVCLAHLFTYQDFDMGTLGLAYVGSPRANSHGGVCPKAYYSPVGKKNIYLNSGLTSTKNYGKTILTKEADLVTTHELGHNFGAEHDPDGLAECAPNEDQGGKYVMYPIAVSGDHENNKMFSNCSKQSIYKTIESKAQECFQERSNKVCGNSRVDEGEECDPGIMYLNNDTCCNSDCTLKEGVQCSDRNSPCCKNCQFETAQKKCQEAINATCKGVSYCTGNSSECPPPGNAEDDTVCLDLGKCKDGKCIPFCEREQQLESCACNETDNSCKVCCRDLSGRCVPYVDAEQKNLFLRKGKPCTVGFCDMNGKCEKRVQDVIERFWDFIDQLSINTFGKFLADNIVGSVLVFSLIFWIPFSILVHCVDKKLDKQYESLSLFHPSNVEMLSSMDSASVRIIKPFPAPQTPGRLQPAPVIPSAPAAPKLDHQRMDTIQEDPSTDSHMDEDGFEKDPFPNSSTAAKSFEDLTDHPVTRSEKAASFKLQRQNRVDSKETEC
# Interstitial collagenase = target: T1, Interstitial collagenase (Homo sapiens, UniProt P03956); assay: Inhibitory activity against matrix metallopeptidase 1
# T1 sequence (P03956 whole entry): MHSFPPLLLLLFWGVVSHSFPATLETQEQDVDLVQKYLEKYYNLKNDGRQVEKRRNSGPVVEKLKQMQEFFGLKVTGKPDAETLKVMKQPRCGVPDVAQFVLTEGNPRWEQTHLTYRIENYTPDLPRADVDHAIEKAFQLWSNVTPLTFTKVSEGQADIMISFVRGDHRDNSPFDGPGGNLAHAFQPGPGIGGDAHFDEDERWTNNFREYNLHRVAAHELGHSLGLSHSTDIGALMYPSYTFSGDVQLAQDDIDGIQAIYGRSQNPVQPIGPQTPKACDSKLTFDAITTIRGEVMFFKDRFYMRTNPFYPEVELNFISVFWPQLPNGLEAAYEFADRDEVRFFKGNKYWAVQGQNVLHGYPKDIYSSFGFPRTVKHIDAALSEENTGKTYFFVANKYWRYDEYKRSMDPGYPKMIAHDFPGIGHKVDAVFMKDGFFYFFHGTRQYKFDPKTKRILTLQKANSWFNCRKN
# THP-1 = assay: Percentage inhibition of TNF production in LPS-stimulated THP-1 cells; type: functional, Homo sapiens
IC50 (Collagenase 3),IC50 [1],SMILES,other results
6 nM,,CC#CCOc1ccc(S(=O)(=O)N2CCN(S(C)(=O)=O)CC2C(=O)NO)cc1 (configuration not stated),
,5 nM,CC#CCOc1ccc(S(=O)(=O)N2CCOCC2C(=O)NO)cc1 (configuration not stated),
,3 nM,CC#CCOc1ccc(S(=O)(=O)N2CCSCC2C(=O)NO)cc1 (configuration not stated),
9 nM,,CC#CCOc1ccc(S(=O)(=O)N2CCN(C(=O)OC)CC2C(=O)NO)cc1 (configuration not stated),
,,CC#CCOc1ccc(S(=O)(=O)N2CCSC(C)(C)C2C(=O)NO)cc1 (configuration not stated),IC50 (Interstitial collagenase): 7 nM
8 nM,,CC#CCOc1ccc(S(=O)(=O)N2CCNCC2C(=O)NO)cc1 (configuration not stated),Inhibition (THP-1): 71%
